Test results as given in patent publication US20080045463A1, “Methods For Lowering Hif-1 Mediated Gene Expression” (priority 2004, published 2008).

Experiments:
HPH [1] = assay: HPH activity in extracts of treated U251 cells (35S-pVHL pulldown); assay type: cell-based, human
Procedure: (§1) Human HPH-1,2,3 and VHL pcDNA3.1/V5-HIS vectors (kindly provided by R. Bruick) were used for TNT Coupled Reticulocyte Lysate in vitro transcription/translation (Promega). Cytoplasmic extract for HPH activity was made by lysing cell pellets in assay buffer (20 mM Tris, pH 7.5, 5 mM KCl, 1.5 mM MgCl2, and 1 mM DTT) at 4° C. using a homogenizer, centrifuging at 20,000 g for 15 minutes and collecting supernatant for the assay. HPH enzymatic reactions were performed as previously described using either IVT products or cell extracts. This assay, chosen for its specificity for the HPH reaction, was linear over 30 minutes. For each reaction, either 7.5 μL of IVT products or 100 μg of cell extract protein were used as source of the enzyme. Activity was measured by either quantitative scintillation counting or by autoradiography after gel electrophoresis on a 10-20% Tris Glycine gradient gel (Invitrogen).
To test this U251 cells was exposed to glucose-free Krebs buffer to either hypoxia (1% O2) or 2 mM pyruvate for four hours. Nuclear HIF-1α protein accumulation was induced by both treatments (FIG. 6A). Then the cells were either returned to 21% O2 or the pyruvate was removed by extensively washing with glucose-free Krebs buffer. […]

HIF-1α [2] = assay: HIF-1α hydroxyproline detection in U251 whole cell extracts; assay type: cell-based, human; conditions: U251, four hours, antibody to hydroxylated ODD region
Procedure: (§2) Protein extraction, western blot analysis, and immunocytochemistry were performed as previously described. Mouse monoclonal anti-HIF-1α antibodies were 610958 (BD Biosciences), and NB100-123 (Novus). Mouse monoclonal anti-GFP antibody was 1814460 (Roche). Mouse monoclonal anti-β-actin antibody was ab6276-100 (Abcam). Dimethyloxalylglycine was D1070 (Frontier Scientific). All other chemicals were from Sigma. Antibodies recognizing HPH homologues were from Novus biologicals and the antisera recognizing […] of HIF-1α was kindly provided by R. Freeman.
Some reactive oxygen species can also induce HIF-1α. […] Next, attention was focused on HIF-1α proline hydroxylation as a target for 2-oxoacids.

HIF-1α [3] = assay: Nuclear HIF-1α accumulation in human cancer cell lines (western blot); assay type: cell-based
Procedure: Human U87, U251, U251-HRE (20) and U373 glioma cells were cultured in Eagle's MEM medium (Mediatech). […] 22B Human head and neck cancer cells were cultured in high glucose DMEM (Gibco) containing 2 mM glutamine. C6 ODD-GFP rat glioma cells were cultured in high glucose DMEM with 1.5 mg/ml G418. All culture media were supplemented with 10% fetal bovine serum and 1% (v/v) penicillin/streptomycin. Rat C6 glioma cells were cultured in high glucose DMEM. For cell hypoxia treatment, the culture dishes were sealed in a modular incubator chamber, flushed with gas containing 1% O2, 5% CO2 and 94% N2 for 5 minutes, and incubated in this environment at 37° C. for indicated times.
Protein extraction, western blot analysis, and immunocytochemistry were performed as previously described. […] Mouse monoclonal anti-β-actin antibody was ab6276-100 (Abcam). Dimethyloxalylglycine was D1070 (Frontier Scientific). All other chemicals were from Sigma.

HPH [4] = assay: 2-Oxoglutarate: HPH binding assay; design: species or system human; conditions: addition of 200 μM ferrous iron
Procedure: Gel was washed four times with the indicated buffer. Analysis of HPH binding was measured by scintillation counting.

HIF-1α [5] = assay: HIF-1α decay after washout of inducer; assay type: cell-based, human; conditions: 100 μM each
Procedure: (§3) Human U87, U251, U251-HRE (20) and U373 glioma cells were cultured in Eagle's MEM medium (Mediatech). DU145 human prostate cancer cells and 022 human head and neck cancer cells were cultured in RPMI 1640 medium (Sigma). 22B Human head and neck cancer cells were cultured in high glucose DMEM (Gibco) containing 2 mM glutamine. C6 ODD-GFP rat glioma cells were cultured in high glucose DMEM with 1.5 mg/ml G418. All culture media were supplemented with 10% fetal bovine serum and 1% (v/v) penicillin/streptomycin. Rat C6 glioma cells were cultured in high glucose DMEM. For cell hypoxia treatment, the culture dishes were sealed in a modular incubator chamber, flushed with gas containing 1% O2, 5% CO2 and 94% N2 for 5 minutes, and incubated in this environment at 37° C. for indicated times.
as §2
To test this U251 cells was exposed to glucose-free Krebs buffer to either hypoxia (1% O2) or 2 mM pyruvate for four hours. Nuclear HIF-1α protein accumulation was induced by both treatments (FIG. 6A). […] HIF-1α immunoreactivity disappeared rapidly upon reoxygenation (return to 21% O2) of hypoxic cells as would be expected with the resumption of oxygen-dependent HIF-1α hydroxylation and proteolysis. […] To directly determine if the HPH activity in glioma cells was reversibly inactivated by pyruvate and oxaloacetate the ^35S-pVHL pulldown assay to measure HPH activity in extracts from cells treated for four hours with the 2-oxoacids was used. To capture the endogenous state of HPH activity, the cell extracts were first assayed without supplementation with exogenous reductants, ascorbate, or iron. […] The minimal HPH activity of extracts from pyruvate or oxaloacetate treated cells could also be restored by supplementation of the extracts with ascorbate or with exogenous ferrous iron (FeSO4) during the assay (FIG. 6D).

[6] = system: labile intracellular iron pool; assay: Calcein fluorescence assay for cellular free iron; assay type: cell-based, human; conditions: calcein loaded U251 cells
Procedure: The ability of 2-oxoacids to chelate the labile intracellular iron pool was measured using the calcein fluorescence assay as previously described. The iron chelators desferrioxamine and bipyridyl were used as positive controls.

HIF-1α [7] = assay: HIF-1α accumulation in 22B head and neck cancer cells; assay type: cell-based, human; conditions: 22B cells, 100 μM each, last 30 minutes after 24 hours accumulation
Procedure: as §3, §2

HIF-1 = HIF-1 luciferase reporter assay in U251-HRE cells; assay type: cell-based, human; conditions: 2 mM 2-oxoacid, 250 μM amino acid, 8 h
VEGF and GLUT3 = assay: RT-PCR of HIF-1 regulated genes in U87 cells; assay type: cell-based, human; conditions: U87, 5× the level normally found in MEM, 2 d
Procedure: Total RNA was isolated using the RNeasy kit (Qiagen). For RT-PCR, 1 μg of total RNA was used with the […] One-Step System (Invitrogen). VEGF, GLUT3, and β-Actin primers were described previously. For quantitative PCR analysis, the iQ SY BR Green Supermix and MyiQ Single-Color

ODD-GFP = assay: Live cell assay for oxygen-dependent degradation, ODD-GFP transfected C6 glioma cells; assay type: cell-based, rat; conditions: C6 cells in Krebs buffer; amino acids 0.5 mM
Procedure: as §3
Next a live cell assay for oxygen-dependent HIF-1α degradation using C6 rat glioma cells that had been stably transfected with a vector encoding the HIF-1 cc ODD region fused to GFP (ODD-GFP) was performed. The ODD-GFP protein is hydroxylated and degraded in an oxygen dependent manner similar to HIF-1α. As with HIF-1α, a basal, as well as, hypoxia-inducible accumulation of ODD-GFP has been reported.

HPH1, HPH2, and HPH3 = assay: HPH prolyl hydroxylation assay with in vitro translated HPHs (35S-pVHL pulldown); assay type: biochemical, human; conditions: in the absence of ascorbate or other reducing agents
Procedure: as §1
To determine whether HPH activity was directly modulated by pyruvate or oxaloacetate, Pro564 hydroxylation in a biotinylated HIF-1α ODD peptide by in vitro translated HPH1, HPH2, and HPH3 was examined. The ability of streptavidin beads to pull down ^35S-pVHL bound to the biotinylated peptide was used as evidence of HIF-1α ODD peptide hydroxylation. This is the most specific and sensitive assay for HPH activity. […] Such assays can also give high background values in cell extracts.

HIF-1α [8] = conditions: requires conversion to pyruvate via lactate dehydrogenase (Lu et al. 2002); cited from earlier work

COC(=O)CNC(=O)C(=O)OC [DMOG, dimethyloxalylglycine]
HPH activity in extracts of cells treated for four hours (HPH [1]; U251, 2 mM pyruvate or oxaloacetate, 1 mM DMOG, no exogenous reductants, ascorbate or iron): no loss of HPH activity
hydroxyproline (Pro564) in induced HIF-1α (HIF-1α [2]): did not contain hydroxyproline

O=S(=O)([O-])[O-].[Fe+2] [Fe(II)]
HIF-1α induction by pyruvate and oxaloacetate with iron added to cultured cells (HIF-1α [3]; U251, Fe(II) 100 μM): prevented HIF-1α induction
NO induced HIF-1α accumulation (HIF-1α [3]; U251, MEM, DETA-NO 300 μM, ascorbate 100 μM, Fe(II) 100 μM, GSH 5 mM): complete inhibition
binding of 35S-HPH homologues to the 2-OG column (HPH [4]): doubled
HPH activity of extracts from pyruvate or oxaloacetate treated cells, extract supplemented during assay (HPH [1]; 100 μM each): restored
HIF-1α decay following induction with pyruvate or oxaloacetate, iron in wash (HIF-1α [5]): enhancement of HIF-1α decay
decay of NO-induced HIF-1α with iron in wash (HIF-1α [5]): accelerated the decay
decay of accumulated HIF-1α after washing out DFO, iron added (HIF-1α [5]): promoted decay
intracellular calcein fluorescence [6]: decrease in fluorescence
accumulated (pyruvate-enhanced) HIF-1α after supplementation (HIF-1α [7]): Fe(II)>Fe(III)
accumulated (pyruvate-enhanced) HIF-1α after supplementation (HIF-1α [7]; listed as ferrous iron): diminished to a greater extent by ferrous iron than by ferric iron

N[C@@H](CS)C(=O)O [cysteine]
HIF-1α accumulation by hypoxia or the iron chelator DFO (HIF-1α [3]; FIG. 3C, 1% O2 or 150 μM DFO): did not affect
inhibition of basal HIF-1α accumulation (HIF-1α [3]; U87, Krebs buffer reconstituted with MEM additives at concentration normally present in MEM, four hours): key amino acids responsible for inhibiting basal HIF-1α accumulation
inhibition of HIF-1α accumulation, L- vs D-isomers and dimer (HIF-1α [3]; U87, four hours, glucose-free Krebs, 1 mM pyruvate or oxaloacetate, 250 μM (FIG. 3C)): effective
HIF-1α induction by glucose, pyruvate, and oxaloacetate (HIF-1α [3]; all cell lines used in this study (data not shown)): lowered HIF-1α induction
inhibition of basal HIF-1α accumulation in complete culture media (HIF-1α [3]; amino acid raised to 5× its normal level in MEM): likely endogenous inhibitors of basal HIF-1α accumulation
HRE-luciferase activity induced by pyruvate or oxaloacetate (HIF-1): lowered HRE-luciferase activity
basal expression of the HIF-1 regulated genes VEGF and GLUT3 (VEGF and GLUT3): lowered the basal expression
ODD-GFP induction by pyruvate or oxaloacetate (ODD-GFP): reduced ODD-GFP induction
stimulation of HIF-1α ODD hydroxylation (HPH1, HPH2, and HPH3): dose dependently stimulate HIF-1α ODD hydroxylation

CC(O)C(=O)O (stereo not shown) [lactate]
HIF-1α accumulation induced by lactate (HIF-1α [8]): can induce HIF-1α accumulation
